Results on 8 compounds are retold here after article PMC10682951, “Structure-function and rational design of a spider toxin Ssp1a at human voltage-gated sodium channel subtypes” (Frontiers in Pharmacology, 2023).

What is called IC50 is the point on the concentration scale where inhibition reaches its midpoint. The inhibition is the share of the control response that was lost under treatment.

Bridge positions count the residues as written; N and C are the ends. Peptide text beside a SMILES is read from it.

What all share (assay type): cell-based
The target of one assay is T1, hNaV1.7 (Homo sapiens, UniProt Q15858).
T1 construct: host or cells: HEK293
Briefly: Automated whole-cell patch-clamp (QPatch 16X), hNaV1.7. The conditions noted are these: HEK293 cells expressing hNaV1.7 + β1 subunit; QPatch 16X; holding −80 mV, step to 0 mV; peptide incubated 2 min; 0.1% BSA; mean, SEM and n (3-9). A digest of the protocol:
(§1)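 HEK293 cells stably expressing the channel (human subtypes with β1 subunit), held at −80 mV; 2 min peptide pre-incubation, then 20 ms steps to 0 mV after a 200 ms −120 mV conditioning pulse. Extracellular pH 7.3 with 20 mM TEA-Cl, CsF-based pipette solution, 0.1% BSA; IC50 from four-parameter Hill fit.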
In general terms: The patch-clamp technique gives a direct electrical read-out from membranes.

Another assay concerns the target T2, hNaV1.2 (Homo sapiens, UniProt Q99250).
T2 construct: host or cells: HEK293
Briefly: Automated whole-cell patch-clamp (QPatch 16X), hNaV1.2. The conditions noted are these: for IC50: HEK293 cells expressing hNaV1.2 + β1 subunit, QPatch 16X, holding −80 mV, step to 0 mV, peptide incubated 2 min, 0.1% BSA, mean, SEM and n (2-7); for hNaV1.2-selectivity against hNaV1.3: ratio of potencies hNaV1.3 / hNaV1.2. In a few lines:
as §1

A further assay deals with T3, hNaV1.3 (Homo sapiens, UniProt Q9NY46).
T3 construct: host or cells: HEK293
T3 sequence (Q9NY46 whole entry): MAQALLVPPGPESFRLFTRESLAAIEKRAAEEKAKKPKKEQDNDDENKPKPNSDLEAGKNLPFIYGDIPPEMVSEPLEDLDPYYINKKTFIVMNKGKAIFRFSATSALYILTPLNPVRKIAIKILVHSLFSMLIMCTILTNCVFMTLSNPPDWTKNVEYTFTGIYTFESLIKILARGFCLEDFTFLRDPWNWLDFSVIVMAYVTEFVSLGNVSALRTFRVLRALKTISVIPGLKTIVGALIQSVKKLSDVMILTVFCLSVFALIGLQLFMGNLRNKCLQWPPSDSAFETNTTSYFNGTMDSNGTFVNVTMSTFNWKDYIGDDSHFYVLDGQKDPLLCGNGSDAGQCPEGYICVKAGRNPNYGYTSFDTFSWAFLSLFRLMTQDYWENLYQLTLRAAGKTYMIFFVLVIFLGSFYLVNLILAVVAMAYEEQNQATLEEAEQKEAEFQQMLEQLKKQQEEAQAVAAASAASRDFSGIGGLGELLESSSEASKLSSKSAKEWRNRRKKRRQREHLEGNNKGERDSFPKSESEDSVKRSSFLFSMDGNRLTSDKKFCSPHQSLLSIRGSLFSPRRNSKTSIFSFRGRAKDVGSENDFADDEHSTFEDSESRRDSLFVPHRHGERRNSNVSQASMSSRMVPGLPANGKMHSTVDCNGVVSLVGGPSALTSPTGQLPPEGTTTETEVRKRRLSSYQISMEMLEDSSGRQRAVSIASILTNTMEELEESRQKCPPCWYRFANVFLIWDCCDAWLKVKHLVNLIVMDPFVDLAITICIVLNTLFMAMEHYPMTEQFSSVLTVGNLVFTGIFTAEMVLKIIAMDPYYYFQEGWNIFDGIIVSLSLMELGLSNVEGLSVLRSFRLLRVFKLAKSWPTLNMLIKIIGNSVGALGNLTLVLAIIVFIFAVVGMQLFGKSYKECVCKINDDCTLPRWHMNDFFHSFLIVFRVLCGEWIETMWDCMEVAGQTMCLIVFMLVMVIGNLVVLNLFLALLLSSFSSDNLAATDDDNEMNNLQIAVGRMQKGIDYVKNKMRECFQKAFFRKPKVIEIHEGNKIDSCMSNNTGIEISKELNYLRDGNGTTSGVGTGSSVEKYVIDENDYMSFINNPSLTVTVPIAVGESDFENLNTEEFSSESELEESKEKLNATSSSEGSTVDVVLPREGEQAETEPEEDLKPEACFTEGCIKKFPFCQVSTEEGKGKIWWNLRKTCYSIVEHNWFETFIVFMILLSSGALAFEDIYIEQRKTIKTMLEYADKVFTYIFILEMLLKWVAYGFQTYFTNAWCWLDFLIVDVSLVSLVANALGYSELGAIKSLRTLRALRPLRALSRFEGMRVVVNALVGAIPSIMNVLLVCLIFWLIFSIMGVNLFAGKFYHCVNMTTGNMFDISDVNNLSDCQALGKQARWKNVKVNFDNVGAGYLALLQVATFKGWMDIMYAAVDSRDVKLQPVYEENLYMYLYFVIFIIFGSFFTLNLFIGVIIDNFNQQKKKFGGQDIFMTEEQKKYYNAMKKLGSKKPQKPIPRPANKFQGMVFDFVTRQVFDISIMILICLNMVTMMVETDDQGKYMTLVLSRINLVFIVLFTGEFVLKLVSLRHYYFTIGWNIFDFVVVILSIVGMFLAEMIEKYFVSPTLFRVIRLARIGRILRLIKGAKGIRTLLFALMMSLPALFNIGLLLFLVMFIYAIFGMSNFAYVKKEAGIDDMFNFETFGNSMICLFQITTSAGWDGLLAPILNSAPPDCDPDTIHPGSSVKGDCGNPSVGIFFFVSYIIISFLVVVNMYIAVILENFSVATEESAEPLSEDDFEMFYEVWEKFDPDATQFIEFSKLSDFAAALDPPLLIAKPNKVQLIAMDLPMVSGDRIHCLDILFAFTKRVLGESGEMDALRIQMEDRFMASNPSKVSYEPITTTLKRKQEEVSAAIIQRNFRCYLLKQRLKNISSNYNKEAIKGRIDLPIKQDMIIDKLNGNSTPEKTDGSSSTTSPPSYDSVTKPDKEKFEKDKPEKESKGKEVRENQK
T3 sequence (Q07699 19-218, further chain): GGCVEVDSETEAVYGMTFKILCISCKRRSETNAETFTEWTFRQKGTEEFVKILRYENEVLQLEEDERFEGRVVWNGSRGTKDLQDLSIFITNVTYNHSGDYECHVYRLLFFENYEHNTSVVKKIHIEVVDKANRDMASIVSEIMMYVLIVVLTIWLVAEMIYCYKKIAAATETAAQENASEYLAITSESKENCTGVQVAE
As to the kind of experiment: Automated whole-cell patch-clamp (QPatch 16X), hNaV1.3. The following applies: for IC50: HEK293 cells expressing hNaV1.3 + β1 subunit, QPatch 16X, holding −80 mV, step to 0 mV, peptide incubated 2 min, 0.1% BSA, mean, SEM and n (3-12). In a few lines: as §1

T2 sequence (Q07699 19-218): as the sequence (Q07699 19-218, further chain) above
T2 sequence (Q99250 whole entry): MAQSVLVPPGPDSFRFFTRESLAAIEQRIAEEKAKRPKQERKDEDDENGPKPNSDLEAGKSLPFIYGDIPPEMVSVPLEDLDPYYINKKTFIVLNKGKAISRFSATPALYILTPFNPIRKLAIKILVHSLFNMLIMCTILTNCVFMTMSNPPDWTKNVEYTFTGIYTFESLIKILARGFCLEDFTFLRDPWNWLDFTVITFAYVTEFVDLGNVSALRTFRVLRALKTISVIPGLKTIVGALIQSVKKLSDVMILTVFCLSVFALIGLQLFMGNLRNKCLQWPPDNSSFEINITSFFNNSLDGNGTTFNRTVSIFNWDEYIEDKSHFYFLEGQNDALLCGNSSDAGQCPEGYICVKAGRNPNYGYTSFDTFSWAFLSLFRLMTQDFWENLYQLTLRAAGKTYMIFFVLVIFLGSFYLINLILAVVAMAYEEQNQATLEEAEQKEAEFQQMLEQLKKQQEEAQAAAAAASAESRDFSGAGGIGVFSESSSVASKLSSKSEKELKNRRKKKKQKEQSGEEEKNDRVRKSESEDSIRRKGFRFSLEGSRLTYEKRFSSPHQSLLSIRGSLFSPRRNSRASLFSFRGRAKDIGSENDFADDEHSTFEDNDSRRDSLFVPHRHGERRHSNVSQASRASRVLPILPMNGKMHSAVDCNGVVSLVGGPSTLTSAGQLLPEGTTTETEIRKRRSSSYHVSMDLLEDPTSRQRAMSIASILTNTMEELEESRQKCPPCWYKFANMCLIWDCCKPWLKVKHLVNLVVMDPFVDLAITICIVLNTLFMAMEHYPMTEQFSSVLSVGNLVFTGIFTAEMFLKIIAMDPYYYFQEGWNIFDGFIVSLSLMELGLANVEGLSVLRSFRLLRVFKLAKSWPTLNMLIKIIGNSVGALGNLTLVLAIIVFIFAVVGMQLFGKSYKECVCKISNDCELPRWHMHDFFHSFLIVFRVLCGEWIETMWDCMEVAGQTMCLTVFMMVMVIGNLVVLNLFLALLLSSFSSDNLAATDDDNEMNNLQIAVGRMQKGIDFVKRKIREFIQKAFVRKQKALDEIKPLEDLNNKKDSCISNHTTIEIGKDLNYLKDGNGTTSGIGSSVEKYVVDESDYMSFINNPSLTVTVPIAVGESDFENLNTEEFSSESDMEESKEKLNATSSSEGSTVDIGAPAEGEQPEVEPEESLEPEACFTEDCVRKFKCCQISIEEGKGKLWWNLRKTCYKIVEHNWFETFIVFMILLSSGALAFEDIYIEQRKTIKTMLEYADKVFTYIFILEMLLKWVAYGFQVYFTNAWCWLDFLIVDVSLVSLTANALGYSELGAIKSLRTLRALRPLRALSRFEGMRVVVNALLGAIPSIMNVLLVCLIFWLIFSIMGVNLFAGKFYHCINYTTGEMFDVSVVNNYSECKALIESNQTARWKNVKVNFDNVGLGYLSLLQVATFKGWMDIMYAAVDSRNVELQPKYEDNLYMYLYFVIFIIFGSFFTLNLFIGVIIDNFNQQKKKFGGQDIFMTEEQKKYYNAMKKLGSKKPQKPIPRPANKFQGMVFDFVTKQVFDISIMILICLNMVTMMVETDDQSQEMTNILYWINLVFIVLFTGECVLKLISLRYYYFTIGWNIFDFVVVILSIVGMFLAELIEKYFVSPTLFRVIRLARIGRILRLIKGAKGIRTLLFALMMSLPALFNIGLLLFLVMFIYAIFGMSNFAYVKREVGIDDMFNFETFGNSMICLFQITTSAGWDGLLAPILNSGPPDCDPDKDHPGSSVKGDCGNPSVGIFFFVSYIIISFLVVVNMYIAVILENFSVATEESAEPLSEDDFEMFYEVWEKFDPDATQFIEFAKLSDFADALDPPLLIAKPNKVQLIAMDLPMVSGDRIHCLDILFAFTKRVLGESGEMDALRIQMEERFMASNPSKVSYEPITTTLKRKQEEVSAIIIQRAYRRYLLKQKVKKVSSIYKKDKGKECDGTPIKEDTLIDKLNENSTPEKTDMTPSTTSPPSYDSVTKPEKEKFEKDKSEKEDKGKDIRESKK

For the compound `CC(C)C[C@H](NC(=O)[C@H](CC(=O)O)NC(=O)[C@H](Cc1ccc(O)cc1)NC(=O)[C@H](CCCNC(=N)N)NC(=O)[C@@H]1CSSC[C@@H]2NC(=O)[C@H](CCCCN)NC(=O)[C@H](CC(N)=O)NC(=O)CNC(=O)[C@H](CC(N)=O)NC(=O)[C@@H]3CCCN3C(=O)[C@H](CC(=O)O)NC(=O)[C@@H]3CSSC[C@H](NC(=O)[C@H](C(C)C)NC(=O)[C@H](Cc4ccc(O)cc4)NC(=O)CNC(=O)[C@H](CCC(=O)O)NC(=O)[C@H](CSSC[C@H](NC(=O)[C@H](CC(=O)O)NC(=O)CN)C(=O)N[C@@H](CC(C)C)C(=O)NCC(=O)N[C@@H](Cc4c[nH]c5ccccc45)C(=O)N[C@@H](Cc4ccccc4)C(=O)N[C@@H](CO)C(=O)NCC(=O)N3)NC2=O)C(=O)N[C@@H](Cc2c[nH]cn2)C(=O)N[C@@H](Cc2c[nH]c3ccccc23)C(=O)N[C@@H](CCCCN)C(=O)N[C@@H](Cc2ccc(O)cc2)C(=O)N2CCC[C@H]2C(=O)N[C@@H](Cc2c[nH]c3ccccc23)C(=O)N1)C(=O)O` [N13G], the IC50 on hNaV1.7 stood at 287 nM; on hNaV1.2, 280 nM; at hNaV1.3, 287 nM.
`CC(C)C[C@H](NC(=O)[C@H](CC(=O)O)NC(=O)[C@H](Cc1ccc(O)cc1)NC(=O)[C@H](CCCNC(=N)N)NC(=O)[C@@H]1CSSC[C@@H]2NC(=O)[C@H](CCCCN)NC(=O)[C@H](C)NC(=O)[C@H](CC(N)=O)NC(=O)[C@H](CC(N)=O)NC(=O)[C@@H]3CCCN3C(=O)[C@H](CC(=O)O)NC(=O)[C@@H]3CSSC[C@H](NC(=O)[C@H](C(C)C)NC(=O)[C@H](Cc4ccc(O)cc4)NC(=O)CNC(=O)[C@H](CCC(=O)O)NC(=O)[C@H](CSSC[C@H](NC(=O)[C@H](CC(=O)O)NC(=O)CN)C(=O)N[C@@H](CC(C)C)C(=O)NCC(=O)N[C@@H](Cc4c[nH]c5ccccc45)C(=O)N[C@@H](Cc4ccccc4)C(=O)N[C@@H](CO)C(=O)NCC(=O)N3)NC2=O)C(=O)N[C@@H](Cc2c[nH]cn2)C(=O)N[C@@H](Cc2c[nH]c3ccccc23)C(=O)N[C@@H](CCCCN)C(=O)N[C@@H](Cc2ccc(O)cc2)C(=O)N2CCC[C@H]2C(=O)N[C@@H](Cc2c[nH]c3ccccc23)C(=O)N1)C(=O)O` [N14A]: the concentration for half-maximal inhibition (IC50) at hNaV1.7 came out at 252 nM; at hNaV1.2, 224 nM; at hNaV1.3 it was 784 nM.
Take `CC(C)C[C@H](NC(=O)[C@H](CC(=O)O)NC(=O)[C@H](Cc1ccc(O)cc1)NC(=O)[C@H](CCCNC(=N)N)NC(=O)[C@@H]1CSSC[C@@H]2NC(=O)[C@H](CCCCN)NC(=O)[C@H](CC(=O)O)NC(=O)[C@H](CC(N)=O)NC(=O)[C@H](CC(N)=O)NC(=O)[C@@H]3CCCN3C(=O)[C@H](CC(=O)O)NC(=O)[C@@H]3CSSC[C@H](NC(=O)[C@H](C(C)C)NC(=O)[C@H](Cc4ccc(O)cc4)NC(=O)CNC(=O)[C@H](CCC(=O)O)NC(=O)[C@H](CSSC[C@H](NC(=O)[C@H](CC(=O)O)NC(=O)CN)C(=O)N[C@@H](CC(C)C)C(=O)NCC(=O)N[C@@H](Cc4c[nH]c5ccccc45)C(=O)N[C@@H](Cc4ccccc4)C(=O)N[C@@H](CO)C(=O)NCC(=O)N3)NC2=O)C(=O)N[C@@H](Cc2c[nH]cn2)C(=O)N[C@@H](Cc2c[nH]c3ccccc23)C(=O)N[C@@H](CCCCN)C(=O)N[C@@H](Cc2ccc(O)cc2)C(=O)N[C@@H](CCCNC(=N)N)C(=O)N[C@@H](Cc2c[nH]c3ccccc23)C(=O)N1)C(=O)O` [N14D/P27R] (H-GDCLGWFSGCDPNNDKCCEGYVCHWKYRWCRYDL-OH; disulfide 3-18, 10-23, 17-30): the IC50 at hNaV1.7 was 57 nM; on hNaV1.2, 87 nM; at hNaV1.3, > 3000 nM. Moreover, the inhibition at 3 µM on hNaV1.3 (3 µM peptide, QPatch, read-out: Inhibition (block) of hNaV1.3 at 3 µM) was ~40%.
Turning to `CC(C)C[C@H](NC(=O)[C@H](CC(=O)O)NC(=O)[C@H](Cc1ccc(O)cc1)NC(=O)[C@H](CCCNC(=N)N)NC(=O)[C@@H]1CSSC[C@@H]2NC(=O)[C@H](CCCCN)NC(=O)[C@H](CC(=O)O)NC(=O)[C@H](CC(N)=O)NC(=O)[C@H](CC(N)=O)NC(=O)[C@@H]3CCCN3C(=O)[C@H](CC(=O)O)NC(=O)[C@@H]3CSSC[C@H](NC(=O)[C@H](C(C)C)NC(=O)[C@H](Cc4ccc(O)cc4)NC(=O)CNC(=O)[C@H](CCC(=O)O)NC(=O)[C@H](CSSC[C@H](NC(=O)[C@H](CC(=O)O)NC(=O)CN)C(=O)N[C@@H](CC(C)C)C(=O)NCC(=O)N[C@@H](Cc4c[nH]c5ccccc45)C(=O)N[C@@H](Cc4ccccc4)C(=O)N[C@@H](CO)C(=O)NCC(=O)N3)NC2=O)C(=O)N[C@@H](Cc2c[nH]cn2)C(=O)N[C@@H](Cc2c[nH]c3ccccc23)C(=O)N[C@@H](CCCCN)C(=O)N[C@@H](Cc2ccc(O)cc2)C(=O)N2CCC[C@H]2C(=O)N[C@@H](Cc2c[nH]c3ccccc23)C(=O)N1)C(=O)O` [N14D], the concentration for half-maximal inhibition (IC50) at hNaV1.7 was > 3000 nM; at hNaV1.2 it was 126 nM; at hNaV1.3, 900 nM. The “hNaV1.2-selectivity against hNaV1.3” value on hNaV1.2 is reported as 7 fold. Also, the “hNaV1.2-selectivity against hNaV1.7” value on hNaV1.2 (ratio of potencies hNaV1.7 / hNaV1.2) was > 24 fold.
With `CC(C)C[C@H](NC(=O)[C@H](CC(=O)O)NC(=O)[C@H](Cc1ccc(O)cc1)NC(=O)[C@H](CCCNC(=N)N)NC(=O)[C@@H]1CSSC[C@@H]2NC(=O)[C@H](CCCCN)NC(=O)[C@H](CC(N)=O)NC(=O)[C@H](CC(N)=O)NC(=O)[C@H](CC(N)=O)NC(=O)[C@H](C)NC(=O)[C@H](CC(=O)O)NC(=O)[C@@H]3CSSC[C@H](NC(=O)[C@H](C(C)C)NC(=O)[C@H](Cc4ccc(O)cc4)NC(=O)CNC(=O)[C@H](CCC(=O)O)NC(=O)[C@H](CSSC[C@H](NC(=O)[C@H](CC(=O)O)NC(=O)CN)C(=O)N[C@@H](CC(C)C)C(=O)NCC(=O)N[C@@H](Cc4c[nH]c5ccccc45)C(=O)N[C@@H](Cc4ccccc4)C(=O)N[C@@H](CO)C(=O)NCC(=O)N3)NC2=O)C(=O)N[C@@H](Cc2c[nH]cn2)C(=O)N[C@@H](Cc2c[nH]c3ccccc23)C(=O)N[C@@H](CCCCN)C(=O)N[C@@H](Cc2ccc(O)cc2)C(=O)N2CCC[C@H]2C(=O)N[C@@H](Cc2c[nH]c3ccccc23)C(=O)N1)C(=O)O` [P11A], the results for the IC50 on hNaV1.7, on hNaV1.2 and at hNaV1.3 were 120 nM, 208 nM and 600 nM, respectively.
On the same counts, the results for `CC(C)C[C@H](NC(=O)[C@H](CC(=O)O)NC(=O)[C@H](Cc1ccc(O)cc1)NC(=O)[C@H](CCCNC(=N)N)NC(=O)[C@@H]1CSSC[C@@H]2NC(=O)[C@H](CCCCN)NC(=O)[C@H](CC(N)=O)NC(=O)[C@H](CC(N)=O)NC(=O)[C@H](CC(N)=O)NC(=O)[C@@H]3CCCN3C(=O)[C@H](CC(=O)O)NC(=O)[C@@H]3CSSC[C@H](NC(=O)[C@H](C(C)C)NC(=O)[C@H](Cc4ccc(O)cc4)NC(=O)CNC(=O)[C@H](CCC(=O)O)NC(=O)[C@H](CSSC[C@H](NC(=O)[C@H](CC(=O)O)NC(=O)CN)C(=O)N[C@@H](CC(C)C)C(=O)NCC(=O)N[C@@H](Cc4c[nH]c5ccccc45)C(=O)N[C@@H](Cc4ccccc4)C(=O)N[C@@H](CO)C(=O)NCC(=O)N3)NC2=O)C(=O)N[C@@H](Cc2c[nH]cn2)C(=O)N[C@@H](Cc2c[nH]c3ccccc23)C(=O)N[C@@H](CCCCN)C(=O)N[C@@H](Cc2ccc(O)cc2)C(=O)N[C@@H](C)C(=O)N[C@@H](Cc2c[nH]c3ccccc23)C(=O)N1)C(=O)O` [P27A] are 166 nM, 270 nM and > 3000 nM.
For the compound `CC(C)C[C@H](NC(=O)[C@H](CC(=O)O)NC(=O)[C@H](Cc1ccc(O)cc1)NC(=O)[C@H](CCCNC(=N)N)NC(=O)[C@@H]1CSSC[C@@H]2NC(=O)[C@H](CCCCN)NC(=O)[C@H](CC(N)=O)NC(=O)[C@H](CC(N)=O)NC(=O)[C@H](CC(N)=O)NC(=O)[C@@H]3CCCN3C(=O)[C@H](CC(=O)O)NC(=O)[C@@H]3CSSC[C@H](NC(=O)[C@H](C(C)C)NC(=O)[C@H](Cc4ccc(O)cc4)NC(=O)CNC(=O)[C@H](CCC(=O)O)NC(=O)[C@H](CSSC[C@H](NC(=O)[C@H](CC(=O)O)NC(=O)CN)C(=O)N[C@@H](CC(C)C)C(=O)NCC(=O)N[C@@H](Cc4c[nH]c5ccccc45)C(=O)N[C@@H](Cc4ccccc4)C(=O)N[C@@H](CO)C(=O)NCC(=O)N3)NC2=O)C(=O)N[C@@H](Cc2c[nH]cn2)C(=O)N[C@@H](Cc2c[nH]c3ccccc23)C(=O)N[C@@H](CCCCN)C(=O)N[C@@H](Cc2ccc(O)cc2)C(=O)N[C@@H](CCCCN)C(=O)N[C@@H](Cc2c[nH]c3ccccc23)C(=O)N1)C(=O)O` [P27K], the IC50 on hNaV1.7 came out at 108 nM; on hNaV1.2, 124 nM; at hNaV1.3, 1520 nM. Besides, the “hNaV1.2-selectivity against hNaV1.3” value on hNaV1.2 is > 10 fold.
As to `CC(C)C[C@H](NC(=O)[C@H](CC(=O)O)NC(=O)[C@H](Cc1ccc(O)cc1)NC(=O)[C@H](CCCNC(=N)N)NC(=O)[C@@H]1CSSC[C@@H]2NC(=O)[C@H](CCCCN)NC(=O)[C@H](CC(N)=O)NC(=O)[C@H](CC(N)=O)NC(=O)[C@H](CC(N)=O)NC(=O)[C@@H]3CCCN3C(=O)[C@H](CC(=O)O)NC(=O)[C@@H]3CSSC[C@H](NC(=O)[C@H](C(C)C)NC(=O)[C@H](Cc4ccc(O)cc4)NC(=O)CNC(=O)[C@H](CCC(=O)O)NC(=O)[C@H](CSSC[C@H](NC(=O)[C@H](CC(=O)O)NC(=O)CN)C(=O)N[C@@H](CC(C)C)C(=O)NCC(=O)N[C@@H](Cc4c[nH]c5ccccc45)C(=O)N[C@@H](Cc4ccccc4)C(=O)N[C@@H](CO)C(=O)NCC(=O)N3)NC2=O)C(=O)N[C@@H](Cc2c[nH]cn2)C(=O)N[C@@H](Cc2c[nH]c3ccccc23)C(=O)N[C@@H](CCCCN)C(=O)N[C@@H](Cc2ccc(O)cc2)C(=O)N[C@@H](CCCNC(=N)N)C(=O)N[C@@H](Cc2c[nH]c3ccccc23)C(=O)N1)C(=O)O` [P27R], the IC50 at hNaV1.7 was 141 nM; at hNaV1.2, 77 nM; at hNaV1.3, > 1000 nM. The “hNaV1.2-selectivity against hNaV1.3” value at hNaV1.2 is recorded as > 10 fold.
